Source: article PMC6591174, “The beneficial androgenic action of steroidal aromatase inactivators in estrogen-dependent breast cancer after failure of nonsteroidal drugs” (Cell Death & Disease, 2019)

Columns and labels:
[1] = test system: AR protein in MCF-7 cells; assay: AR protein expression by western blot and immunofluorescence; type: cell-based, human; conditions: incubation 3 days
Description: Fig. 3 Influence of indicated compounds on the expression of the AR. […] AR protein expression was analyzed by western blot as described in “Materials and methods”. b The densitometric evaluation of the bands is calculated by ImageJ. The numbers represent the densitometric value relative to untreated control. […] Typical image is shown. Scale bars: 10 μm
Total cell proteins were obtained from 70% confluent cell cultures. Protein extracts of whole cells (50 μg) were denatured, separated by SDS–PAGE and transferred to polyvinylidene fluoride membranes. After blocking with 3% bovine serum albumin in Tris-buffered saline-Tween, membranes were probed overnight at 4 °C. […] After incubation with the appropriate secondary antibody, results were detected using ECL detection reagents. Immunoreactive bands were quantified by densitometry using ImageJ software.
MCF-7 cells were seeded on 24-well plates (2 × 10^4 cells/well) with a poly-L-lysine-coated glass coverslip per well in 10% PRF–CT. […] Cells were visualized with a ×40 objective and a Qimaging digital camera coupled to an Olympus X71 fluorescence microscope using a red fluorescent protein filter.

MCF-7 cells = assay: Cell cycle analysis by flow cytometry; type: cell-based, human; conditions: 100 nM, 72 h
Description: Fig. 2 Proliferative response of cancer cells to indicated compounds. a–c the effect of concentrations of different compounds on the growth of the cells. Cells were cultured in 10% PRF-CT with E2 1 nM (MCF-7 and ZR-75-1) or without E2 (MDA-MB-231) for 3 days before plating. Cells were seeded in 96-well plates and 24 h later they were exposed to different concentrations (1 nM– 10 μM) of compounds for 6 days (MCF-7 and ZR-75-1) or 3 days (MDA-MB-231). Cell growth was measured as described in the “Materials and methods”. The proliferation of cells is expressed as the ratio of the cells compared with the control wells (untreated cells). d, e Influence of different compounds on the cell cycle of MCF-7 cells. MCF-7 cells were cultured in 10% PRF-CT with E2 (1 nM) for 3 days before plating. Cells were seeded in six-well plates and, the next day, starved in PRF for 24 h. Cells were exposed to different compounds at a concentration of 100 nM for 72 h, and then subjected to cell-cycle analysis as described in “Materials and methods”. f MCF-7 cells on poly-L-lysine-coated glass coverslips were exposed to compounds (100 nM) in 10% PRF-CT with 1 nM E2 for 72 h. Control cells were treated with vehicle. DAPI stains DNA, and the secondary anti-mouse antibody to detect the antibody bound to Ki-67 is labeled with the cyanine dye Cy3. The cells were stained with DAPI (blue). Immunofluorescence staining of Ki-67 of cells was observed using fluorescence microscope. Red: Ki-67; blue: nucleus.Typical image is shown. Scale bars: 10 μm. Data represent a mean ± SEM of three independent experiments, each in triplicate; bars, SEM. *P ≤ 0.05 vs. control
Cell cycle kinetics were studied by flow cytometry. MCF-7 cells were cultured in 10% PRF–CT with 1 nM E2 for 3 days prior to seeding on six-well plates (10^5 cells/well). Following seeding of cells, cells were serum starved for 24 h, and then treated with media containing 100 nM of the test compounds for 72 h. Cell-cycle analysis was performed as described by Ando[20].

[2] = biological target: T1, Rat AR ligand-binding domains (His-GST-ARLBD) (Rattus norvegicus, UniProt P15207); assay: AR fluorescence polarization-based competitive hormone-binding assay (PolarScreen AR Competitor Assay, Red); conditions: 25 nM His-GST-ARLBD, 2 nM Fluormone AL Red; read-out: IC50 of competitive binding to AR
T1 construct: purchased Invitrogen
T1 sequence (P15207 651-882 limits assumed): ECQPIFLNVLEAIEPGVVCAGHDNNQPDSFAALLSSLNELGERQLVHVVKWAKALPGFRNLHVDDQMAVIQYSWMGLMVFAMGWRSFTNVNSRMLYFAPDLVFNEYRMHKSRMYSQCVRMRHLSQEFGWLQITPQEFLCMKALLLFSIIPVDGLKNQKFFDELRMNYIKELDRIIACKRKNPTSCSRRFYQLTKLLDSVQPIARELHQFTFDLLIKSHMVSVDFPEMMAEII
Description: Fig. 4 The affinity of indicated compounds to the AR and their regulation of AR transcriptional activity. a AR fluorescence polarization-based competitive hormone-binding assays. […] Curve fitting was done using GraphPad Prism software (version 7.00). […] ARE(3×)-regulated dual-luciferase activity in U2-OS cells under steroid-free conditions. Cells were transiently transfected with pcDNA3.1-AR and ARE3-luc2P (firefly luciferase reporter plasmids) and the internal normalization control pRL-TK (Renilla luciferase reporter plasmid). Six hours after transfection, cells were treated as indicated. Then they were assayed 48 h after transfection for dual-luciferase activity. […] Briefly, compounds were dissolved in DMSO and mixed at 2% (vol/vol) with AR Red Screening Buffer. The tested compounds were subsequently serially diluted in two-fold increments with AR Red Screening Buffer and mixed 1:1 (vol/vol) with a 2 × AR/Fluormone AL complex. Competition for binding AR between Fluormone AL and the tested compounds was allowed to come to equilibrium for 4 h and not more than 20 h at room temperature in the dark. Fluorescence polarization value (mP) was measured on a fluorescence polarization plate reader (Biotech cytation5). Each compound dose was performed in triplicate, relative error was calculated from the standard error of the mean (SEM), and curve fitting was performed using GraphPad Prism™ 7.0 software.

SMILES | Cyclin D1 mRNA and protein (cyclin D1 in MCF-7 cells) | expression of the AR protein [1] | influence on the cell cycle (G1/G0 increase, S-phase decrease) (MCF-7 cells) | IC50 [2] [nM]
C[C@]12CCC(=O)C[C@@H]1CC[C@@H]1[C@@H]2CC[C@]2(C)[C@@H](O)CC[C@@H]12 [DHT, dihydrotestosterone] | decrease | enhanced considerably | most significant influence on the cell cycle | 
C=C1C[C@H]2[C@@H]3CC[C@H](O)[C@@]3(C)CC[C@@H]2[C@@]2(C)C=CC(=O)C=C12 [17-HEXE, 17-hydroexemestane] |  |  |  | 10.4
C[C@]12CC[C@H]3[C@@H](CCC4=C(O)C(=O)CC[C@@]43C)[C@@H]1CC[C@@H]2O [4-OHT, 4-hydroxytestosterone] |  |  | most effective of the tested compunds | 18.2
